What all share (test): Kinobeads competition binding, L-363 cell lysate
What all share (set-up): endogenous in cells
What all share (conditions): 10 μM free compound, L-363 lysate

One test has as its target GSK3B (Homo sapiens, UniProt P49841). The gist of the method:
(§1)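 L-363 plasma cell leukaemia cells were treated 3 h with 20 μM MG132 before harvest. Lysate was preincubated with 10 μM free compound or DMSO, then captured on matrix bearing immobilized compound; bound proteins were eluted, SDS-PAGE separated, trypsin-digested, iTRAQ-labeled and quantified by LC-MS/MS reporter ions.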

The next test addresses MAP2K3 (Homo sapiens, UniProt P46734). The gist of the method: as §1
For another test, the target named is Erk2 (Homo sapiens, UniProt P28482). The gist of the method:
as §1

The target of a further test is T1, PIP5K2C (Homo sapiens, UniProt Q8TBX8).
T1 sequence (Q8TBX8 1-421): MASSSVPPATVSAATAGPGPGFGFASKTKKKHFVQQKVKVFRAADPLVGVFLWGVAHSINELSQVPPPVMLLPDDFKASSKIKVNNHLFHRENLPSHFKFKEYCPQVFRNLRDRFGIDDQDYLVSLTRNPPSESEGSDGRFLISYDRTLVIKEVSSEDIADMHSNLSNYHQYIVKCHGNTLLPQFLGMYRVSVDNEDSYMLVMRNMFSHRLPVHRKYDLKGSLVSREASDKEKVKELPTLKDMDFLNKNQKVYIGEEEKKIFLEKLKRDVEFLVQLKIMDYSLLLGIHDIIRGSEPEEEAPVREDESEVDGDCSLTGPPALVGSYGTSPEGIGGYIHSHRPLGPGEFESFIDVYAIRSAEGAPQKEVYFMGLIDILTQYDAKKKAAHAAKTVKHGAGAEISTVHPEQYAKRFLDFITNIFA
The gist of the method: as §1

Another test concerns the target IRAK1 (Homo sapiens, UniProt P51617). The gist of the method: as §1
The target of another test is T2, TAO3 (Homo sapiens, UniProt Q9H2K8).
T2 sequence (Q9H2K8 1-898): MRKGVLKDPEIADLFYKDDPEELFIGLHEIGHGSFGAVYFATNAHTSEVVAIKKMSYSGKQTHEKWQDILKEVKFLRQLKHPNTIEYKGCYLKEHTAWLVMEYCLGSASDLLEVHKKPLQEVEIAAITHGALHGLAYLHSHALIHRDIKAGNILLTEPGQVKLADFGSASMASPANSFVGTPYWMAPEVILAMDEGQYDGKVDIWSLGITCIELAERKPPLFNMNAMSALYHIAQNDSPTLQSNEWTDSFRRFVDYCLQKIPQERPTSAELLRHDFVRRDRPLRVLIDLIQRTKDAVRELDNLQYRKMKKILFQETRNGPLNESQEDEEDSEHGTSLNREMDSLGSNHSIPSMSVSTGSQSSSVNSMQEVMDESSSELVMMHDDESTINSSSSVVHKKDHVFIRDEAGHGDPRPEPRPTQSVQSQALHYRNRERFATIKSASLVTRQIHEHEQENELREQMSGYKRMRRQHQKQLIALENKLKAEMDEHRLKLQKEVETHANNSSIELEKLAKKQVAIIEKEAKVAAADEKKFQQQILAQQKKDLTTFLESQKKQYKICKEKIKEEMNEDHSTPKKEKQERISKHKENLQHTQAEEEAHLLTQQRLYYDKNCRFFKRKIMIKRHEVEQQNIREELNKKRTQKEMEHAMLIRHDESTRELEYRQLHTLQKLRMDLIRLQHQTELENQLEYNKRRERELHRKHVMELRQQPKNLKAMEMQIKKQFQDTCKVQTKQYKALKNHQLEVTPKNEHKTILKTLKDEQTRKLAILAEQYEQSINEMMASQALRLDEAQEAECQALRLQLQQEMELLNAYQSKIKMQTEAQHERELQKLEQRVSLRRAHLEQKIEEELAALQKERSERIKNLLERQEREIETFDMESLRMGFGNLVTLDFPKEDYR
The gist of the method: as §1

The target of the next test is GSK3A (Homo sapiens, UniProt P49840). The gist of the method: as §1
Chain of GSK3A (P49840 whole entry): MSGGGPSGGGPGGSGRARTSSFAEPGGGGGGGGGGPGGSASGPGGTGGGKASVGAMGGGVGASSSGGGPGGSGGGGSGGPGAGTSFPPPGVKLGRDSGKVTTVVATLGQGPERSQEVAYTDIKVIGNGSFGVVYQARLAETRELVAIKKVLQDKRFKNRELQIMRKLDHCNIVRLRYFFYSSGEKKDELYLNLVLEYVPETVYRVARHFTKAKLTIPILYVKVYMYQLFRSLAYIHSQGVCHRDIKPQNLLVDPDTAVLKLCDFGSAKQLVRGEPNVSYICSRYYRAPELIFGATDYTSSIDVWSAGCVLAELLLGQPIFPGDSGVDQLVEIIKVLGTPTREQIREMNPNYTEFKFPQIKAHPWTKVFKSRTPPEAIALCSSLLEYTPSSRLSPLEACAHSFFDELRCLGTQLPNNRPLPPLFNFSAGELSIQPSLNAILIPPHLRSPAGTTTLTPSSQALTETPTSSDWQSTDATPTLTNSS
Another test concerns the target MST2 (Homo sapiens, UniProt Q13188). Summed up: as §1
The target of the next test is PKN1 (Homo sapiens, UniProt Q16512). The gist of the method:
as §1

In another test the target is T3, MST1 (Homo sapiens, UniProt Q13043).
T3 sequence (Q13043 1-487): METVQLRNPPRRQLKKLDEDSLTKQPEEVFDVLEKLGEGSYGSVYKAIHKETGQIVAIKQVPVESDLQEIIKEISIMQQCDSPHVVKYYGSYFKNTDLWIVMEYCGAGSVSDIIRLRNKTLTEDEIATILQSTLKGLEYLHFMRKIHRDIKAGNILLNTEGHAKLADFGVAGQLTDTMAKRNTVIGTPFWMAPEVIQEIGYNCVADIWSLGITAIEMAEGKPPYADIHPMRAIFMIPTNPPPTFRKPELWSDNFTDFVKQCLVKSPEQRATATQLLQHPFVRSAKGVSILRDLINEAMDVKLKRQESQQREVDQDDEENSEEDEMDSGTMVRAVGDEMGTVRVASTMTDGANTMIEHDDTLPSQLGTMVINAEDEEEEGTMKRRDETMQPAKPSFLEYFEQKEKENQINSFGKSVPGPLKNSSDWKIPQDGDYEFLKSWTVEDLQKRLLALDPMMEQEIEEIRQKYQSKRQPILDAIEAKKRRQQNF
Summed up:
as §1

The next test addresses ALK2 (Homo sapiens, UniProt Q04771). Summed up: as §1

Chain of ALK2 (Q04771 21-509): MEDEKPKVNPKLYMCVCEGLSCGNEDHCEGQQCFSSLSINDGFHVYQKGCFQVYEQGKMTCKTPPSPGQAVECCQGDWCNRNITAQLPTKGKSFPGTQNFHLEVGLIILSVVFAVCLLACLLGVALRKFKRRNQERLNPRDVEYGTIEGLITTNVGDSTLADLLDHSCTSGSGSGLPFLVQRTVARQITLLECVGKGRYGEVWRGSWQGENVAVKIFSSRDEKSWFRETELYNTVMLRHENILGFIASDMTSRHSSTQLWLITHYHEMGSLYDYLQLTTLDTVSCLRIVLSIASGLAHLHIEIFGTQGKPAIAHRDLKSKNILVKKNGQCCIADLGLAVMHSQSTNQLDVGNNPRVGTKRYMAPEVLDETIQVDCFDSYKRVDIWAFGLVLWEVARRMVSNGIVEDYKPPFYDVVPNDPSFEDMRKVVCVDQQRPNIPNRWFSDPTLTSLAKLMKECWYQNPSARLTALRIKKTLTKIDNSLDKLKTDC
Chain of IRAK1 (P51617 whole entry): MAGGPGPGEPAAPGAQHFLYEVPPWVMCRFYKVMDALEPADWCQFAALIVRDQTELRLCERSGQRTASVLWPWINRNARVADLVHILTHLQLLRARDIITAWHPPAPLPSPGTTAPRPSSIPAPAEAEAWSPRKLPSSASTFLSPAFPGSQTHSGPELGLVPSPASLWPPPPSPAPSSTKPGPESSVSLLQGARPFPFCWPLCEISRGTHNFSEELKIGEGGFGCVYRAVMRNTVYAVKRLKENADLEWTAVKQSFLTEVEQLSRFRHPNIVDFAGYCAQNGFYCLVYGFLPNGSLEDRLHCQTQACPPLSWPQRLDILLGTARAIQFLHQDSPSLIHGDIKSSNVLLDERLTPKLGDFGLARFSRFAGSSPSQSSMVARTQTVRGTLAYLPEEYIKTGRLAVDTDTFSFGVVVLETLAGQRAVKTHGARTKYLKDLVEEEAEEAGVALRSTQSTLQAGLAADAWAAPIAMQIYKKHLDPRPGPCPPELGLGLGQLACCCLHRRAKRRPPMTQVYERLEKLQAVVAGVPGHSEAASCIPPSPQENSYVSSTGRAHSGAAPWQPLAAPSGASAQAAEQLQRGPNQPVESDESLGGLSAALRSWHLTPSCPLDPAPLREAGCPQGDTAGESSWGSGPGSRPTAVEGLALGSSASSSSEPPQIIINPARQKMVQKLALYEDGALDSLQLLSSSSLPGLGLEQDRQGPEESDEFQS
Chain of MAP2K3 (P46734 whole entry): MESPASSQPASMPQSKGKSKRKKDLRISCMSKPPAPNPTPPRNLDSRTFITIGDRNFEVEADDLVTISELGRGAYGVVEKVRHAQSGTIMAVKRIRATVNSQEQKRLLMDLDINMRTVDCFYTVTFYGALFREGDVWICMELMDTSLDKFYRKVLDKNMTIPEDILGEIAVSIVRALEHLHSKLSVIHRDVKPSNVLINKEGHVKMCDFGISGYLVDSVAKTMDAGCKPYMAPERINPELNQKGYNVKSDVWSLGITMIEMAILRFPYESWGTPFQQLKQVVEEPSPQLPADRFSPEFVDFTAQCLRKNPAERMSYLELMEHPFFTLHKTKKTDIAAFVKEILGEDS
Chain of MST2 (Q13188 whole entry): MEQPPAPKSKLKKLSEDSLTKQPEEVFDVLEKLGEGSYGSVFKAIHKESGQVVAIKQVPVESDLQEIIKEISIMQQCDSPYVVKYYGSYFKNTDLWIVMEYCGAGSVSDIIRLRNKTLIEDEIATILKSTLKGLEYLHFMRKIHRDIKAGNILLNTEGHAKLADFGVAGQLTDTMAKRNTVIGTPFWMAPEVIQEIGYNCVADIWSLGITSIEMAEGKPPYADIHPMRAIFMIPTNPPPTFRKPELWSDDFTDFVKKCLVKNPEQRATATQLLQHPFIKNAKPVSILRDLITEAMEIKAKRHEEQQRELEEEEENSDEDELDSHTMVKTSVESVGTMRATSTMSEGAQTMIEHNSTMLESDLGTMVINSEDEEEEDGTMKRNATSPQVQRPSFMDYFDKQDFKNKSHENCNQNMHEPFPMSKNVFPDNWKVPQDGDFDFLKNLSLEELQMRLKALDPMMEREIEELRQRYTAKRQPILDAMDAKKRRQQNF
Chain of Erk2 (P28482 whole entry): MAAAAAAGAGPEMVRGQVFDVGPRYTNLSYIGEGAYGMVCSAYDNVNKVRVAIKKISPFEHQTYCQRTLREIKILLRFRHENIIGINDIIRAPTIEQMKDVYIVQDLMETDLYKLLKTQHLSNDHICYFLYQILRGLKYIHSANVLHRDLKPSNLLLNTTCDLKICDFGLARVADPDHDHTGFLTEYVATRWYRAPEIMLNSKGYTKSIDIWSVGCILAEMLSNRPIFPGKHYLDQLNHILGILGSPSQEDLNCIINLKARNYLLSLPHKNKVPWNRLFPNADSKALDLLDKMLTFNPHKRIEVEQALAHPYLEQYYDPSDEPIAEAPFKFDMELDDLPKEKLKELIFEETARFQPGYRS
Chain of PKN1 (Q16512 whole entry): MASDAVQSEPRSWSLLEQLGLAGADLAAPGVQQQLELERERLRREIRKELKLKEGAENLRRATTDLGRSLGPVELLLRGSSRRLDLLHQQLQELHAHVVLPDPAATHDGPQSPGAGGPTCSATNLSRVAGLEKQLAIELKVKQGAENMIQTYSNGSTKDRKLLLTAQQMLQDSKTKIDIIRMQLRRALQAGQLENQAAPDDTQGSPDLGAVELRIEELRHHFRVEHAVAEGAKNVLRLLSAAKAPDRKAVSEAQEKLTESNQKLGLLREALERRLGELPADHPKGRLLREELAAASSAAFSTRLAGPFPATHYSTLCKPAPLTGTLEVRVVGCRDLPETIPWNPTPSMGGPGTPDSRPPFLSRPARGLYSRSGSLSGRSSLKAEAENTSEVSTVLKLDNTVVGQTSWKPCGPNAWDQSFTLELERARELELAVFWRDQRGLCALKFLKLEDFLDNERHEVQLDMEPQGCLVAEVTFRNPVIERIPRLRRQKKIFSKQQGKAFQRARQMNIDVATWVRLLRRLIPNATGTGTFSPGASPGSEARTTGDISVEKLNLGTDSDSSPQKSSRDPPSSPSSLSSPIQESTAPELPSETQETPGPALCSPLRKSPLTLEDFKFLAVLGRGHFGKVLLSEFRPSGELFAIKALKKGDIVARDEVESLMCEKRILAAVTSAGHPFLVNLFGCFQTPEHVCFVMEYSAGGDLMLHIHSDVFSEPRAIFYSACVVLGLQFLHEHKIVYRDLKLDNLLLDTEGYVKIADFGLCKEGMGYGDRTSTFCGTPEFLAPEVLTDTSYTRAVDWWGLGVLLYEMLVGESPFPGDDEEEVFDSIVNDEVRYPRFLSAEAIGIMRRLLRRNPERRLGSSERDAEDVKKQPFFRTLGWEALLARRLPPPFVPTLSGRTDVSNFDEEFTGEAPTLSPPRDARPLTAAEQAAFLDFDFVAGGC
Chain of GSK3B (P49841 whole entry): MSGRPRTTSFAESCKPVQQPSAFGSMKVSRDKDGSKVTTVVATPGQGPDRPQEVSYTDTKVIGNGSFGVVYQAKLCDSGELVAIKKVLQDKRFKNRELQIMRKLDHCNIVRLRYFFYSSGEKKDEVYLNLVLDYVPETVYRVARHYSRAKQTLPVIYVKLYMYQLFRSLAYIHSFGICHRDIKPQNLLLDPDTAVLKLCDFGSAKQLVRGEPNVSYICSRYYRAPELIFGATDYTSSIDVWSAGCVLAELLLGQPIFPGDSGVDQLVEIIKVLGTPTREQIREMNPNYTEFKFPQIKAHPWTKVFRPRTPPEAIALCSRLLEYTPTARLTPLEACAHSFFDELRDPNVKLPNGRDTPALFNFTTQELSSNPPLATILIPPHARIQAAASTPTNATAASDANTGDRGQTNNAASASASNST

What is called inhibition is how much of the control response was suppressed. Higher therefore signals strong suppression. In the case of `CS(=O)(=O)Nc1ccccc1Nc1nc(Nc2cccc(OCCN)c2)ncc1Cl` [CZC31326, N-(2-(2-(3-(2-aminoethoxy)phenylamino)-5-chloropyrimidin-4-ylamino)phenyl)methanesulfonamide], the inhibition at 10 µM was 94.6% at GSK3B; 93.9% on MAP2K3; 74.4% at Erk2; 92% on PIP5K2C; 95.1% at IRAK1; 94.7% on TAO3. Also, the inhibition at 10 µM turned out to be 96.9% at GSK3A, 98.2% on MST2, 95.9% at PKN1 and 95.7% on ALK2. The same compound yielded a Competition % on MST1 of 98.3%.
